Values of other authors in US6486129B1, “Antithrombotic compounds” (Akzo Nobel N.V., priority 1998, dated 2002).

Target: thrombin (Homo sapiens, UniProt P00734)
Conditions: background description of prior art

thrombin specificity: low thrombin specificity
Substance: Nα-(2-naphthylsulfonyl)-glycyl-4-amidinophenylaianinpiperidide [NAPAP]
